Assay results published in patent US20080103205A1, “Pesticidal compositions and methods of use” (priority 2006, published 2008).

Assays:
M. incognita = assay: Initial petri dish toxicity assay, M. incognita; type: in vivo; settings: Meloidogyne incognita; 100 ppm for 24 hr
Source text: (§1) The stilbene nucleus is a simple chemical scaffold, and excellent gains in potency can be envisioned from appropriate chemical modification. In addition, other compounds having a similar mode of action have been described, including NPPB, IAA-94, and 9-AC (FIGS. 1-3). This Example 1 describes further toxicity studies with these compounds.

H. bacteriophora = assay: Initial petri dish toxicity assay / preliminary studies, H. bacteriophora; type: in vivo, Heterorhabditis bacteriophora; settings: initial petri dish assays / preliminary studies
Source text: as §1
This broad cross resistance supports a role for AT blockers in the action of these compounds.

O=S(=O)(O)c1cc(N=C=S)ccc1/C=C/c1ccc(N=C=S)cc1S(=O)(=O)O [DIDS, trans-4,4′-diisothiocyanatostilbene-2,2′-disulfonic acid, reference compound]
mortality at 100 ppm (M. incognita): 20% | paralytic/lethal effect, sensitivity (H. bacteriophora): less sensitive
